From US7544707B2, “Bicyclic derivatives as PPAR modulators” (Eli Lilly and Company, priority 2003, dated 2009)

Row | melting point [°C] | SMILES
1 | 183 to 185 | O=C(O)Cc1csc2cc(SCc3cccc4nn(-c5ccc(C(F)(F)F)cc5)cc34)ccc12 [Example 29, 6-[2-(4-Trifluoromethylphenyl)-2H-indazol-4-ylmethylsulfanyl]benzo[b]thiophen-3-ylacetic Acid]
2 | 199 to 201 | CC(C)(Oc1ccc(OCc2ccc3cn(-c4ccc(C(F)(F)F)cc4)nc3c2)cc1)C(=O)O [Example 52, 2-Methyl-2-{4-[2-(4-trifluoromethylphenyl)-2H-indazol-6-ylmethoxy]phenoxy}propionic Acid]
3 | 164 to 166 | Cc1cc(OCc2ccc3nn(-c4ccc(C(F)(F)F)cc4)cc3c2)ccc1OC(C)(C)C(=O)O [Example 61, 2-Methyl-2-{2-methyl-4-[2-(4-trifluoromethylphenyl)-2H-indazol-5-ylmethoxy]phenoxy}propionic Acid]
4 | 115 to 117 | CCc1cc(SCCc2cccc3cn(-c4ccc(C(F)(F)F)cc4)nc23)ccc1OCC(=O)O [Example 45, (2-Ethyl-4-{2-[2-(4-trifluoromethylphenyl)-2H-indazol-7-yl]ethylsulfanyl}phenoxy)acetic Acid]
5 | 125 to 128 | CC(C)(Oc1ccc(SCc2cccc3cnn(-c4ccc(C(F)(F)F)cc4)c23)cc1)C(=O)O [Example 99, 2-Methyl-2-{4-[1-(4-trifluoromethylphenyl)-1H-indazol-7-ylmethylsulfanyl]phenoxy}propionic Acid]
6 | 129 to 131 | CC(C)(Oc1ccc(COCc2ccc3cn(-c4ccc(C(F)(F)F)cc4)nc3c2)cc1)C(=O)O [Example 56, 2-Methyl-2-{4-[2-(4-trifluoromethylphenyl)-2H-indazol-6-ylmethoxymethyl]phenoxy}propionic Acid]
7 | 142 to 144 | Cc1cc(SCc2ccc3cn(-c4ccc(C(F)(F)F)cc4)nc3c2)ccc1OCC(=O)O [Example 19, 2-Methyl-4-[2-(4-trifluoromethylphenyl)-2H-indazol-6-ylmethylsulfanyl]phenoxyacetic Acid]
8 | 181 to 183 | Cc1cc(OCc2ccc3cn(-c4ccc(C(F)(F)F)cc4)nc3c2)ccc1CCC(=O)O [Example 24, 3-{2-Methyl-4-[2-(4-trifluoromethylphenyl)-2H-indazol-6-ylmethoxy]phenyl}propionic Acid]
9 | 141 to 143 | O=C(O)Cc1csc2cc(SCc3cccc4cn(-c5ccc(C(F)(F)F)cc5)nc34)ccc12 [Example 5, 6-[2-(4-Trifluoromethylphenyl)-2H-indazol-7-ylmethylsulfanyl]benzo[b]thiophen-3-ylacetic Acid]
10 | 181 to 186 | Cc1cc(SC(c2ccccc2)c2cccc3c2cnn3-c2ccc(C(F)(F)F)cc2)ccc1OC(C)(C)C(=O)O (racemic) [Example 92, (+/−)-2-Methyl-2-(2-methyl-4-{phenyl-[1-(4-trifluoromethylphenyl)-1H-indazol-4-yl]methylsulfanyl}phenoxy)propionic Acid]
11 | 122 to 124 | CCc1cc(SCc2cccc3c2cnn3-c2ccc(C(F)(F)F)cc2)ccc1OCC(=O)O [Example 31, 2-Ethyl-4-[1-(4-trifluoromethylphenyl)-1H-indazol-4-ylmethylsulfanyl]phenoxyacetic Acid]
12 | 130 to 132 | Cc1cc(OC(C)c2cccc3nn(-c4ccc(C(F)(F)F)cc4)cc23)ccc1OC(C)(C)C(=O)O (racemic) [Example 74, (+/−)-2-Methyl-2-(2-methyl-4-{1-[2-(4-trifluoromethylphenyl)-2H-indazol-4-yl]ethoxy}phenoxy)propionic Acid]
13 | 146 to 149 | CC(C)(Oc1ccc(OCc2cccc3cnn(-c4ccc(C(F)(F)F)cc4)c23)cc1)C(=O)O [Example 100, 2-Methyl-1-2-{4-[1-(4-trifluoromethylphenyl)-1H-indazol-7-ylmethoxy]phenoxy}propionic Acid]
14 | 150 to 152 | CC(Sc1ccc(OC(C)(C)C(=O)O)cc1)c1cccc2cn(-c3ccc(C(F)(F)F)cc3)nc12 (racemic) [Example 42, (+/−)-2-Methyl-2-(4-{1-[2-(4-trifluoromethylphenyl)-2H-indazol-7-yl]ethylsulfanyl}phenoxy)propionic Acid]
15 | 128 to 130 | CC(C)(Oc1ccc(OCc2cccc3c2cnn3-c2ccc(C(F)(F)F)cc2)cc1)C(=O)O [Example 81, 2-Methyl-2-{4-[1-(4-trifluoromethylphenyl)-1H-indazol-4-ylmethoxy]phenoxy}propionic Acid]
16 | 194 to 196 | O=C(O)Cc1csc2cc(SCc3ccc4cn(-c5ccc(C(F)(F)F)cc5)nc4c3)ccc12 [Example 23, 6-[2-(4-Trifluoromethylphenyl)-2H-indazol-6-ylmethylsulfanyl]benzo[b]thiophen-3ylacetic Acid]
17 | 140 to 142 | Cc1cc(SC(C)c2cccc3cn(-c4ccc(C(F)(F)F)cc4)nc23)ccc1OC(C)(C)C(=O)O (racemic) [Example 41, (+/−)-2-Methyl-2-(2-methyl-4-{1-[2-(4-trifluoromethylphenyl)-2H-indazol-7-yl]ethylsulfanyl}phenoxy)propionic Acid]

Row | melting point [°C] | SMILES
18 | 143 to 145 | Cc1cc(SCc2ccc3nn(-c4ccc(C(F)(F)F)cc4)cc3c2)ccc1OC(C)(C)C(=O)O [Example 64, 2-Methyl-2-{2-methyl-4-[2-(4-trifluoromethylphenyl)-2H-indazol-5-ylmethylsulfanyl]phenoxy}propionic Acid]
19 | 112 to 114 | CC(C)(Oc1ccc(SCCc2cccc3cn(-c4ccc(C(F)(F)F)cc4)nc23)cc1)C(=O)O [Example 50, 2-Methyl-2-(4-{2-[2-(4-trifluoromethylphenyl)-2H-indazol-7-yl]ethylsulfanyl}phenoxy)propionic Acid]
20 | 168 to 170 | CC(C)(Sc1ccc(OCc2cccc3c2cnn3-c2ccc(C(F)(F)F)cc2)cc1)C(=O)O [Example 80, 2-Methyl-2-{4-[1-(4-trifluoromethylphenyl)-1H-indazol-4-ylmethoxy]phenylsulfanyl}propionic Acid]
21 | 133 to 135 | CC(C)(Sc1ccc(OCc2ccc3cn(-c4ccc(C(F)(F)F)cc4)nc3c2)cc1)C(=O)O [Example 55, 2-Methyl-2-{4-[2-(4-trifluoromethylphenyl)-2H-indazol-6-ylmethoxy]phenylsulfanyl}propionic Acid]
22 | 133 to 135 | Cc1cc(OCCc2cccc3cn(-c4ccc(C(F)(F)F)cc4)nc23)ccc1OC(C)(C)C(=O)O [Example 48, 2-Methyl-2-(2-methyl-4-{2-[2-(4-trifluoromethylphenyl)-2H-indazol-7-yl]ethoxy}phenoxy)propionic Acid]
23 | 214 to 216 | CC(C)(Sc1ccc(OCc2cccc3cnn(-c4ccc(C(F)(F)F)cc4)c23)cc1)C(=O)O [Example 97, 2-Methyl-2-{4-[1-(4-trifluoromethylphenyl)-1H-indazol-7-ylmethoxy]phenylsulfanyl}propionic Acid]
24 | 140 to 145 | Cc1cc(OC(c2ccccc2)c2cccc3c2cnn3-c2ccc(C(F)(F)F)cc2)ccc1OC(C)(C)C(=O)O (racemic) [Example 91, (+/−)-2-Methyl-2-(2-methyl-4-{phenyl-[1-(4-trifluoromethylphenyl)-1H-indazol-4-yl]methoxy}phenoxy)propionic Acid]
25 | 119 to 121 | Cc1cc(OCc2ccc3cn(-c4ccc(C(F)(F)F)cc4)nc3c2)ccc1OC(C)(C)C(=O)O [Example 51, 2-Methyl-2-{2-methyl-4-[2-(4-trifluoromethylphenyl)-2H-indazol-6-ylmethoxy]phenoxy}propionic Acid]
26 | 114 to 116 | Cc1cc(SC(C)c2ccc3cn(-c4ccc(C(F)(F)F)cc4)nc3c2)ccc1OC(C)(C)C(=O)O (racemic) [Example 60, (+/−)-2-Methyl-2-(2-methyl-4-{1-[2-(4-trifluoromethylphenyl)-2H-indazol-6-yl]ethylsulfanyl}phenoxy)propionic Acid]
27 | 122 to 124 | CC(C)(Oc1ccc(OCCc2cccc3cn(-c4ccc(C(F)(F)F)cc4)nc23)cc1)C(=O)O [Example 47, 2-Methyl-2-(4-{2-[2-(4-trifluoromethylphenyl)-2H-indazol-7-yl]ethoxy}phenoxy)propionic Acid]
28 | 138 to 140 | CC(Oc1ccc(SC(C)(C)C(=O)O)cc1)c1cccc2nn(-c3ccc(C(F)(F)F)cc3)cc12 (racemic) [Example 76, (+/−)-2-Methyl-2-(4-{1-[2-(4-trifluoromethyl-phenyl)-2H-indazol-4-yl]ethoxy}phenylsulfanyl)propionic Acid]
29 | 158 to 160 | CC(Oc1ccc(SC(C)(C)C(=O)O)cc1)c1cccc2cn(-c3ccc(C(F)(F)F)cc3)nc12 (racemic) [Example 43, (+/−)-2-Methyl-2-(4-{1-[2-(4-trifluoromethylphenyl)-2H-indazol-7-yl]ethoxy}phenylsulfanyl)propionic Acid]
30 | 68 to 70 | Cc1cc(SC(C)(C)c2cccc3cn(-c4ccc(C(F)(F)F)cc4)nc23)ccc1CCC(=O)O [Example 15, 3-(2-Methyl-4-{1-methyl-1-[2-(4-trifluoromethylphenyl)-2H-indazol-7-yl]ethylsulfanyl}phenyl)propionic Acid]
31 | 140 to 142 | CC(C)(Oc1ccc(SCc2cccc3cn(-c4ccc(C(F)(F)F)cc4)nc23)cc1)C(=O)O [Example 36, 2-Methyl-2-{4-[2-(4-trifluoromethylphenyl)-2H-indazol-7-ylmethylsulfanyl]phenoxy}propionic Acid]
32 | 159 to 161 | CCc1cc(SCc2cccc3cn(-c4ccc(C(F)(F)F)cc4)nc23)ccc1OCC(=O)O [Example 3, 2-Ethyl-4-[2-(4-trifluoromethylphenyl)-2H-indazol-7-ylmethylsulfanyl]phenoxyacetic Acid]
33 | 175 to 177 | CC(C)(Sc1ccc(OCc2cccc3cn(-c4ccc(C(F)(F)F)cc4)nc23)cc1)C(=O)O [Example 38, 2-Methyl-2-{4-[2-(4-trifluoromethylphenyl)-2H-indazol-7-ylmethoxy]phenylsulfanyl}propionic Acid]

Row | SMILES | melting point [°C]
34 | Cc1cc(OC(CCC(F)(F)F)c2cccc3c2cnn3-c2ccc(C(F)(F)F)cc2)ccc1OC(C)(C)C(=O)O (racemic) [Example 87, (+/−)-2-Methyl-2-(2-methyl-4-{4,4,4-trifluoro-1-[1-(4-trifluoromethylphenyl)-1H-indazol-4-yl]butoxy}phenoxy)propionic Acid] | 218 to 222
